Measured values as given in patent publication EP4467137A1, “TREATMENT OF FRONTOTEMPORAL DEMENTIA OR FRONTOTEMPORAL LOBAR DEMENTIA” (Universidad Autónoma de Madrid, priority 2023, dated 2024).

System: Iba-1
Experiment: LPS in vivo model: brain microgliosis by Iba-1 immunofluorescence
Set-up: species or system mouse
Details: 20 mg·kg^-1 i.p.; 4 and 24 h after LPS
Description: Immunofluorescence labelling in in vitro and in vivo samples was performed as described in [Luengo, Enrique et al. "Implication of type 4 NADPH oxidase (NOX4) in tauopathy." Redox biology vol. 49 (2022): 102210. doi:10.1016/j.redox.2021.102210 ].
Example 2.3.1. Treatment with Compound 1 reduces LPS-induced cytokine expression and release in mouse brain. Mice were treated i.p. with a daily dose of 20 mg·kg^-1 of Compound 1 for 4 consecutive days. On the last day, LPS (0.5 mg·kg^-1) was injected i.p. one h after the compound. Thereafter, behavioural, and biochemical outcomes were analysed at different time points.
Example 2.3.2. Treatment with Compound 1 reduces LPS-induced microgliosis in mouse brain. Microglial cells constitute the immune cells of our brain; therefore, they play a key role in regulating neuroinflammation. Microgliosis was evaluated using Iba-1 as a microglial marker in immunofluorescence experiments 4 h and 24 h after the inflammatory stimuli (LPS).

## COc1ccc2c(c1)CC(c1c[nH]c3ccc(OC)cc13)N2 (stereo not shown) [Compound 1, 5-Methoxy-3-(5-methoxyindolin-2-yl)-1H-indole]
  mean fluorescence intensity of Iba-1 per cell: restored to saline levels
